Experimental data as given in patent US7189691B2, “Methods and compositions for treating leukemia” (The Administrators of the Tulane Educational Fund, priority 2004, dated 2007).
“Also recorded” adds a separate entry of the source.

Experiments:
[1] = target: T1, AF4-AF9 protein complexes (Homo sapiens, UniProt P42568); assay: Co-localization of GFP-AF4R1 3A- and RFP-AF9 in transfected NIH-3T3 cells; type: cell-based, mouse; settings: overnight
T1 construct: expressed in transfected cells; host or cells: NIH-3T3
T1 sequence (P42568 1-568): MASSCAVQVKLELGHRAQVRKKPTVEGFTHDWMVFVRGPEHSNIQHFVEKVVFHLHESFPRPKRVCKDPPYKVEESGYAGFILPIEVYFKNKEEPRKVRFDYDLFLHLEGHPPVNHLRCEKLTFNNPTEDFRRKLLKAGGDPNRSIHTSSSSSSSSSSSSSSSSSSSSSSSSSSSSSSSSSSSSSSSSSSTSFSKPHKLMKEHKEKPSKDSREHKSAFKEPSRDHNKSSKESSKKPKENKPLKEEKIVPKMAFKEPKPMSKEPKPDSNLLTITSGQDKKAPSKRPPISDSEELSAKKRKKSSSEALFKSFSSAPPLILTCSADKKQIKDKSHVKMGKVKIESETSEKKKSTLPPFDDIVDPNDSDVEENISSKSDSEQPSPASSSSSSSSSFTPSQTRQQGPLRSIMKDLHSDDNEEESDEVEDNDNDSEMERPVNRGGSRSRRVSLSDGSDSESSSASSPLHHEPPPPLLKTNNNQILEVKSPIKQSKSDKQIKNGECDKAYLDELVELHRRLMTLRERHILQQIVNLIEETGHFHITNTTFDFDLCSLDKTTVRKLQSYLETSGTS
Method: To determine whether PFWT disrupts AF4-AF9 protein complexes in living cells, the properties of a fragment of mouse AF4 protein encompassing amino acids 623–811 (SEQ ID NO: 115) was used. The entire murine AF4 sequence can be obtained from the NCBI database at Accession Number AAD08668.
To test whether disruption of the AF4-AF9 interaction by PFWT results in delocalization of AF4R1 3A- from the nucleus to the cytoplasm even when co-expressed with exogenous AF9, the following assay was performed.
An enhanced green fluorescent protein (GFP) expression vector encoding mouse AF4 amino acids 623–811 SEQ ID NO: 115 (pEGFP-AF4R1 3A-), and a red fluorescent protein (RFP)-tagged AF9 expression vector were produced as described (Erfurth, F., et al., 2004, cited above; Srinivasan 2003, cited above; Hemenway, C. S., et al., 2001, cited above). NIH-3T3 cells were grown in chamber slides containing DMEM supplemented with 1-glutamine, 1% non-essential amino acids, 1% sodium pyruvate, 10% calf serum, and antibiotics. Cells were then transiently transfected with the expression vectors expressing fluorescent protein-tagged AF4 and AF9 using Lipofectamine™ 2000 reagent (Invitrogen). After 24 h the cells were treated with the peptides PFWT or PFmut at a concentration of 25 or 50 μg/ml and incubated overnight.
Cells on chamber slides were washed in PBS, fixed with 3% paraformaldehyde for 15 minutes, treated with 300 nM 4′,6-Diamidino-2-phenyindole (DAPI) nuclear counterstain for 5 minutes, and mounted with coverslips using Prolong™ media (Molecular Probes). Slides were visualized by deconvolution fluorescence microscopy with a Leica DMRXA upright microscope (Meyer Instruments) equipped with a Sensicam™ QE CCD digital camera (Cooke Corporation) and filter sets for both EGFP (exciter HQ480/20, dichroic Q495LP, and emitter HQ510/20m) and RFP (exciter 560/55x, dichroic Q595LP, and emitter HQ645/75m). Images were captured, deconvolved, and analyzed with Slidebook™ software (Intelligent Imaging Innovations).
Image analysis entailed a pixel correlation algorithm between the EGFP and RFP fluorescence channels within each image through creation of a digital binary overlay (thresholding) over arbitrary regions in both channels. This statistical measurement determines the degree in which two pixels in an image correspond to one another. If the trend in number of pixels in both EGFP and RFP channels overlap or co-localize entirely (i.e., perfect pixel set correlation), they have an assigned correlation measurement of 1.0.

[2] = system: KP-L-RY leukemia cell line; assay: MTT viability assay; type: cell-based; settings: 72 h, differing concentrations
Method: All cell lines were maintained in RPMI 1640+10% FCS. 100 μl aliquots of cell suspension (5×10^5 cells/ml) were cultured in flat-bottomed 96 well plates in the presence of different concentrations of peptides. After 72 h incubation at 37° C. in humidified air containing 5% CO2, viable cell number was determined by MTT assay as follows: 10 μl of 3-[4,5-dimethylthiazol-2-yl]-2,5-diphenyl tetrazolium bromide (MTT) (5 mg/ml concentration) (Sigma) was added to each well and incubated further for 6 h. Formazan crystals that are formed during incubation were dissolved in 100 μl of acidified isopropanol. The optical density at 550 nm (which is linearly related to the number of viable cells) was measured using a plate spectrophotometer. Growth characteristics of the leukemia cell lines were also determined for cells by Trypan Blue exclusion.

| SMILES | localization of GFP-AF4R1 3A- relative to RFP-AF9 ([1]; 25 μg/ml) | pixel correlation between EGFP and RFP channels ([1]; 25 μg/ml) | localization of GFP-AF4R1 3A- relative to RFP-AF9 ([1]; 50 μg/ml) | pixel correlation between EGFP and RFP channels ([1]; 50 μg/ml) | cell viability [2] |
| --- | --- | --- | --- | --- | --- |
| CC[C@H](C)[C@H](NC(=O)[C@H](CCCCN)NC(=O)[C@@H](NC(=O)[C@H](Cc1c[nH]c2ccccc12)NC(=O)[C@H](CC(C)C)NC(=O)[C@H](CCCCN)NC(=O)[C@H](CCCCN)NC(=O)[C@H](Cc1c[nH]c2ccccc12)NC(=O)[C@H](CCCCN)NC(=O)[C@H](CCSC)NC(=O)[C@H](CCCNC(=N)N)NC(=O)[C@H](CCCNC(=N)N)NC(=O)[C@H](CC(N)=O)NC(=O)[C@H](CCC(N)=O)NC(=O)[C@H](Cc1ccccc1)NC(=O)[C@H](Cc1c[nH]c2ccccc12)NC(=O)[C@H](CCCCN)NC(=O)[C@@H](NC(=O)[C@H](CCC(N)=O)NC(=O)[C@@H](N)CCCNC(=N)N)[C@@H](C)CC)C(C)C)C(=O)N[C@@H](CC(=O)O)C(=O)N[C@@H](CC(C)C)C(=O)N[C@@H](CC(=O)O)C(=O)N[C@@H](CC(C)C)C(=O)N[C@@H](CC(C)C)C(=O)N[C@@H](CO)C(=O)N[C@@H](CCCNC(=N)N)C(=O)N[C@H](C(=O)N1CCC[C@H]1C(=O)O)C(C)C [PFWT] | partially delocalizes or is displaced from RFP-AF9 | negative correlation value | little or no GFP-AF4R1 3A- remains in the nucleus | negatively correlated | diminished; also recorded: inhibits |
| CC[C@H](C)[C@H](NC(=O)[C@H](CCC(N)=O)NC(=O)[C@@H](N)CCCNC(=N)N)C(=O)N[C@@H](CCCCN)C(=O)N[C@@H](Cc1c[nH]c2ccccc12)C(=O)N[C@@H](Cc1ccccc1)C(=O)N[C@@H](CCC(N)=O)C(=O)N[C@@H](CC(N)=O)C(=O)N[C@@H](CCCNC(=N)N)C(=O)N[C@@H](CCCNC(=N)N)C(=O)N[C@@H](CCSC)C(=O)N[C@@H](CCCCN)C(=O)N[C@@H](Cc1c[nH]c2ccccc12)C(=O)N[C@@H](CCCCN)C(=O)N[C@@H](CCCCN)C(=O)N[C@@H](CC(C)C)C(=O)N[C@@H](Cc1c[nH]c2ccccc12)C(=O)N[C@@H](CCC(=O)O)C(=O)N[C@@H](CCCCN)C(=O)N[C@@H](CO)C(=O)N[C@@H](CC(=O)O)C(=O)N[C@@H](CC(C)C)C(=O)N[C@@H](CC(=O)O)C(=O)N[C@@H](CC(C)C)C(=O)N[C@@H](CC(C)C)C(=O)N[C@@H](CO)C(=O)N[C@@H](CCCNC(=N)N)C(=O)N[C@H](C(=O)N1CCC[C@H]1C(=O)O)C(C)C [PFmut] | no observable effect | significantly positively correlated | displaces some GFP-AF4R1 3A- from RFP-AF9 into the cytoplasm | strongly positively correlated | much less sensitive |
